# From patent US8722713B2, “Synergistic antimicrobial composition of 1,2-benzisothiazolin-3-one and tris(hydroxymethyl)nitromethane” (Dow Global Technologies LLC, priority 2010, dated 2014)
# Assays:
# [1] = system: oil field isolated anaerobic consortium, mainly SRB; assay: Biocidal efficacy (MBC) against anaerobic bacteria in contaminated salt solution; format: cell-based; details: 40° C., 24 hour, 10^6 to 10^7 CFU/mL
# Procedure: Inside an anaerobic chamber (Bactron anaerobic chamber), a deaerated sterile salt solution (3.1183 g of NaCl, 1.3082 mg of NaHCO3, 47.70 mg of KCl, 72.00 mg of CaCl2, 54.49 mg of MgSO4, 172.28 mg of Na2SO4, 43.92 mg of Na2CO3 in 1 L water) was contaminated with an oil field isolated anaerobic consortium, mainly SRB, at final bacterial concentrations of 10^6 to 10^7 CFU/mL. The aliquots of this contaminated water were then treated with BIT, Tris Nitro, or the BIT/Tris Nitro combinations at different active concentration levels. After the mixtures were incubated at 40° C. for 24 hour, the biocidal efficacy was determined by minimum tested biocide concentration for bacteria kill in the aliquots (MBC). Table 1 summarizes the efficacy of each biocide and their blends, and the Synergy Index* of each combination.
# [2] = system: Psedomonas aeruginosa ATCC 10145 and Staphylococcus aureus ATCC 6538; assay: Biocidal efficacy (MBC, complete kill) against aerobic bacteria in contaminated NaCl solution; format: cell-based; details: 37° C., 24 hour, ~10^6 CFU/ml
# Procedure: A sterile NaCl solution (0.85%) was contaminated with Psedomonas aeruginosa ATCC 10145 and Staphylococcus aureus ATCC 6538 at final bacterial concentration of ˜10^6 CFU/ml. The aliquots of this contaminated water were then treated with BIT, Tris Nitro, or the BIT/Tris Nitro combination at different active concentration levels. […] Table 2 summarizes the efficacy of each biocide and their blends, and the Synergy Index of each combination.
Compound,MBC (active ppm) Tris Nitro ([1]; concentration of Tris Nitro at minimum tested biocide concentration for bacteria kill) [active ppm],Dosage required for complete kill (active ppm) Tris Nitro ([2]; concentration of Tris Nitro at MBC) [active ppm],MBC (active ppm) BIT ([1]; concentration of BIT at minimum tested biocide concentration for bacteria kill) [active ppm],Dosage required for complete kill (active ppm) BIT ([2]; concentration of BIT at MBC) [active ppm]
"O=[N+]([O-])C(CO)(CO)CO [0:1, tris(hydroxymethyl)nitromethane]",>100,25.7,–,–
"O=c1[nH]sc2ccccc12 [1:0, 1,2-benzisothiazolin-3-one]",–,–,17.3,>25
